Results reported in patent US11771765B2, “Light augmented treatment method” (The Procter & Gamble Company, priority 2019, dated 2023).

Columns and labels:
protoporphyrin IX (PPIX) [1] = assay: Protoporphyrin IX levels in treated M. furfur cells by HPLC; assay type: cell-based; conditions: for PPIX levels upon treatment: non-chelator antifungals, Table 11
Description: PPIX absorb light in the 400 nm range, and when light is absorbed, PPIX transitions to an excited triplet state that can react with triplet oxygen to produce singlet oxygen or the excited porphyrin can generate ROS through single electron processes. These reactive species result in a loss of cell viability.
(§1) M. furfur cells are exposed to other antifungals that are not considered chelators (i.e. selenium sulfide (SeSx), Sulfur, Climbazole, and Terbinafine). After treatment, cells are then exposed to light, or not exposed to light. Both OD are measured to measure growth and PPIX levels are measured.

M. furfur cells = assay: Non-chelator antifungals with or without light, M. furfur growth (Table 11); assay type: cell-based, Malassezia furfur; conditions: for effect of adding light on efficacy: non-chelator antifungals, OD values of Table 11
Description: as §1

M. furfur CBS 7982 = assay: Fractional Inhibitor Concentration (FIC): antimicrobial plus 409 nm light on M. furfur growth; assay type: cell-based, Malassezia furfur; conditions: for growth, OD 600 nm: 27 h growth
Description: Fractional Inhibitor Concentration (FIC) is a conventional methodology for evaluating the interaction of two antimicrobial chemicals. […] In an embodiment of the present invention, FIC is used to determine combinatorial effects of one chemical and exposure to light on Malassezia growth and/or viability in an in vitro system.
• 1. M. furfur CBS 7982 cells are exposed to a varying concentrations of an antimicrobial active (e.g. ZPT, Piroctone Olamine) for a specified amount of time (e.g. 2 min to 3 hours). • 2. After exposure, the antimicrobial is washed away by centrifugation of the cells and a series of washes • 3. Cells are then exposed to light at a wavelength of 409 nm for varying lengths of time • 4. Cells are then allowed to grow up overnight (e.g. 17 h) to determine the impact of the treatment on viability and growth of the organism by measuring OD600 II. Data Analysis: • 1. Inhibition of growth is determined to be where the OD value obtained is <=50% of the untreated control • 2. The lowest concentration value of the antimicrobial agent which inhibits growth is determined • 3. Likewise, the shortest light exposure time is determined that gives growth inhibition • 4. Finally, the combination of the lowest concentration of the antimicrobial and the shortest light exposure time that provides growth inhibition is determined • 5. The FIC value is determined using the calculation below:
[formula] • 6. The combinatorial effect of the antimicrobial and light is classified according to the chart below: […]
(§2) M. furfur is incubated for one hour with varying concentrations of Piroctone Olamine. Cell pellets are collected by centrifugation so that most of the anti-fungal material has been removed. The cell pellet is suspended in PBS and 500 uL samples are distributed to four 12 well plates and treated with light (409 nm) for 1, 10 or 60 minutes or stored in the dark. Samples are then diluted into mDixon, and incubated for 16 h with subsequent growth measured by OD 600 nm.
as §2, with “Hinokitiol.” for “Piroctone Olamine.”, “27” for “16”, “nm. […]” for “nm.”

protoporphyrin IX (PPIX) [2] = assay: Protoporphyrin IX levels in treated M. furfur cells by HPLC; assay type: cell-based

SMILES: CC(C)(C)C(=O)C(Oc1ccc(Cl)cc1)n1ccnc1 (stereo not shown) [Climbazole]
- PPIX (protoporphyrin IX (PPIX) [1]; 1 ppm (Table 11, second part)): 4.5 ng
- PPIX levels upon treatment (protoporphyrin IX (PPIX) [1]): PPIX levels do not change
- OD600 (M. furfur cells; 1 ppm, Dark (second part)): 11.9
- OD600 (M. furfur cells; 1 ppm, Light (second part)): 10.2
- effect of adding light on efficacy (M. furfur cells): does not increase their efficacy

SMILES: CC(C)c1cccc(=O)c(O)c1 [Hinokitiol]
- shortest light exposure time when applied in combination to give growth inhibition (M. furfur CBS 7982; 409 nm light, with the lowest inhibiting concentration): 1 min
- growth, OD 600 nm (M. furfur CBS 7982; Hinokitiol 3 ppm 1 h, 409 nm light 0 min): 8.3
- growth, OD 600 nm (M. furfur CBS 7982; Hinokitiol 3 ppm 1 h, 409 nm light 1 min): 7.9
- growth, OD 600 nm (M. furfur CBS 7982; Hinokitiol 3 ppm 1 h, 409 nm light 10 min): 4.6
- growth, OD 600 nm (M. furfur CBS 7982; Hinokitiol 3 ppm 1 h, 409 nm light 60 min): 4.5
- growth, OD 600 nm (M. furfur CBS 7982; Hinokitiol 6 ppm 1 h, 409 nm light 0 min): 8.5
- growth, OD 600 nm (M. furfur CBS 7982; Hinokitiol 6 ppm 1 h, 409 nm light 1 min): 1.8
- growth, OD 600 nm (M. furfur CBS 7982; Hinokitiol 6 ppm 1 h, 409 nm light 10 min): 0.3
- growth, OD 600 nm (M. furfur CBS 7982; Hinokitiol 6 ppm 1 h, 409 nm light 60 min): 0.4
- growth, OD 600 nm (M. furfur CBS 7982; Hinokitiol 12 ppm 1 h, 409 nm light 0 min): 8.6
- growth, OD 600 nm (M. furfur CBS 7982; Hinokitiol 12 ppm 1 h, 409 nm light 1 min): 2.3
- growth, OD 600 nm (M. furfur CBS 7982; Hinokitiol 12 ppm 1 h, 409 nm light 10 min): 0.2
- growth, OD 600 nm (M. furfur CBS 7982; Hinokitiol 12 ppm 1 h, 409 nm light 60 min): 0.3
- growth, OD 600 nm (M. furfur CBS 7982; Hinokitiol 24 ppm 1 h, 409 nm light 0 min): 6.1
- growth, OD 600 nm (M. furfur CBS 7982; Hinokitiol 24 ppm 1 h, 409 nm light 1 min): 0.6
- growth, OD 600 nm (M. furfur CBS 7982; Hinokitiol 24 ppm 1 h, 409 nm light 10 min): 0.2
- growth, OD 600 nm (M. furfur CBS 7982; Hinokitiol 24 ppm 1 h, 409 nm light 60 min): 0.2
- growth, OD 600 nm (M. furfur CBS 7982; Hinokitiol 48 ppm 1 h, 409 nm light 0 min): 5.7
- growth, OD 600 nm (M. furfur CBS 7982; Hinokitiol 48 ppm 1 h, 409 nm light 1 min): 0.2
- growth, OD 600 nm (M. furfur CBS 7982; Hinokitiol 48 ppm 1 h, 409 nm light 10 min): 0.1
- growth, OD 600 nm (M. furfur CBS 7982; Hinokitiol 48 ppm 1 h, 409 nm light 60 min): 0.1
- growth, OD 600 nm (M. furfur CBS 7982; Hinokitiol 96 ppm 1 h, 409 nm light 0 min): 5.9
- growth, OD 600 nm (M. furfur CBS 7982; Hinokitiol 96 ppm 1 h, 409 nm light 1 min): 0.3
- growth, OD 600 nm (M. furfur CBS 7982; Hinokitiol 96 ppm 1 h, 409 nm light 10 min): 0.0
- growth, OD 600 nm (M. furfur CBS 7982; Hinokitiol 96 ppm 1 h, 409 nm light 60 min): 0.0
- lowest concentration to give growth inhibition (M. furfur CBS 7982; antimicrobial alone, no light, inhibition = OD <=50% of untreated control): > 96 ppm
- FIC value (M. furfur CBS 7982; antimicrobial plus 409 nm light): 0.08
- Combinatorial Effect (M. furfur CBS 7982; antimicrobial plus 409 nm light, classified by FIC value): synergistic
- lowest concentration when applied in combination with light to give growth inhibition (M. furfur CBS 7982; with 409 nm light, inhibition = OD <=50% of untreated control): 6 ppm

SMILES: S=[Se]=S [SeSx, selenium sulfide]
- PPIX levels upon treatment (protoporphyrin IX (PPIX) [1]): PPIX levels do not change
- OD600 (M. furfur cells; 0.4 ppm, Dark): 3.31
- OD600 (M. furfur cells; 0.4 ppm, Light): 2.27
- OD600 (M. furfur cells; 0.8 ppm, Dark): 1.51
- OD600 (M. furfur cells; 0.8 ppm, Light): 1.44
- effect of adding light on efficacy (M. furfur cells): does not increase their efficacy
- PPIX (protoporphyrin IX (PPIX) [2]; 0.4 ppm (Table 11)): 2.6 ng
- PPIX (protoporphyrin IX (PPIX) [2]; 0.8 ppm (Table 11)): 1.2 ng

SMILES: S1SSSSSSS1 [Sulfur]
- PPIX (protoporphyrin IX (PPIX) [1]; 8 ppm (Table 11)): 1.6 ng
- PPIX levels upon treatment (protoporphyrin IX (PPIX) [1]): PPIX levels do not change
- OD600 (M. furfur cells; 8 ppm, Dark): 4.52
- OD600 (M. furfur cells; 8 ppm, Light): 3.62
- effect of adding light on efficacy (M. furfur cells): does not increase their efficacy

SMILES: CN(C/C=C/C#CC(C)(C)C)Cc1cccc2ccccc12 [Terbinafine]
- PPIX (protoporphyrin IX (PPIX) [1]; 0.5 ppm (Table 11, second part)): 6.7 ng
- PPIX levels upon treatment (protoporphyrin IX (PPIX) [1]): PPIX levels do not change
- OD600 (M. furfur cells; 0.5 ppm, Dark (second part)): 12.5
- OD600 (M. furfur cells; 0.5 ppm, Light (second part)): 10.6
- effect of adding light on efficacy (M. furfur cells): does not increase their efficacy
